From US10292597B2, “Assessing endothelial function and providing calibrated UFMD data using a blood pressure cuff” (The Regents of the University of California, priority 2015, dated 2019)
“Also recorded” adds a separate entry of the source.

Legend:
NO synthase = experiment: Single pulse waveforms from the pressure cuff after endothelial stimulation, with NO synthase inhibitor; assay type: in vivo, human; details: cuff inflated to 70 mm Hg; FIG. 3
Excerpt: Both the amplitude and slope of the rising edge of the pulse increase markedly after endothelial stimulation.
In an artery with intact endothelial function, both pulse height (maximal cross-sectional arterial area) and compliance (maximum slope of the rising edge) increase markedly over baseline. […] FIG. 4 illustrates how a five minute cuff occlusion and the ensuring reactive hyperemia lead to major increases in area change per pulse and the maximum derivative of the area per pulse. Both metrics return to baseline levels after 20 minutes. FIG. 5 confirms the repeatability of the protocol by illustrating the effects of a series of two cuff occlusion periods. We see from FIG. 6 that only a small slow drift in the measured quantities occurs when no reactive hyperemic stimulus is applied.
A stimulus is then applied to the subject. Any of a number of stimuli expected to alter endothelial function are contemplated. Such stimuli include, for example, occlusion of blood flow, and/or application of one or more drugs to the subject. Illustrative drugs include, for example, drugs that act as NO agonists (e.g. acetylcholine), β2-adrenergic agonists such as albuterol, acoustic/mechanical tissue vibration, transcutaneous low frequency ultrasound (see, e.g., Iida et al. (2006) J. Amer. Coll. Cardiol., 48(3): 532-537), and the like. […]

brachial artery = experiment: Cuff-based measurement of pulse amplitude (proportional to arterial area) before and after a stimulus; assay type: in vivo, human
Description: Three individuals in the age-range of 28-38 were examined. All subjects had Framingham risk scores of 1% or less, and had no history of cardiovascular disease. Each individual was assessed at least three times before and after RH induced by five minutes of suprasystolic cuff occlusion. At least one additional measurement was made using the same protocol, except without cuff inflation. Sensitivity to a 0.4 mg dose of sublingual NG was assessed three times in two individuals.
Sensitivity to a 0.4 mg dose of sublingual NG was assessed three times in two individuals. In the analysis that follows, all of the datasets are pooled by stimulus. This addresses the question: Can the method measure changes in arterial tone due to vasorelaxatory stimuli and with what sensitivity?
A single quantity relating to the recorded pressure data, the pulse amplitude, was studied and it was posited that this is proportional to the arterial area. During the post stimulus interval, pressure data from the cuff were recorded approximately every 80 seconds, for a period of 30 seconds. During each recording interval, the cuff was inflated to 70 mm Hg, which was always below the measured diastolic pressure of the subject. To quantify the observed response, the mean of the pulse quantity (in this case, amplitude) during the response interval was divided by the mean value of the same quantity during the baseline interval. FIG. 10 illustrates the results.
In Table 2, the maximum response for each stimulus is calculated and the statistical significance of the change relative to the NS case (one-tail Student's t test) is evaluated. Values of p<0:05 were considered significant.
(iii) The cuff is inflated to a value Pm, which must be less than the mean arterial pressure, for a period Tm=30 s. During this time interval, we measure and record the pressure fluctuations in the cuff.
v) The stimulus is applied. This is either 1-5 min of cuff occlusion to suprasystolic pressure Ps (for studies of endothelial function) or a dose of sublingual NG (for studies of endothelium-independent vasodilation).
(vi) After Tp=45 s have elapsed following cuff release or drug administration, a series of up to Nr=10 repeat measurement intervals ensue. In each interval, the cuff is inflated to Pm for Tm seconds, after which it is deflated for Tw seconds. This large number of repeat measurements (Nr) is required only when one wishes to record the return of the vessel toward baseline.
(viii) Each post-stimulus response is then compared to the average baseline response, to yield the area-based cFMD metric (Equation 2) defined above. […]
(iv) The maximum of the cFMD metric in Equation 2, analogous to that used for uFMD, expressed directly as a function of the measurement data, is calculated as […]

arterial smooth muscle = details: cited from earlier work

Row | Structure (SMILES) | effect on increase of pulse amplitude and rising-edge slope after endothelial stimulation (NO synthase) | change in metric, NG vs. NS (brachial artery; 400 μg sublingual vs zero dose (no stimulus)) | cDmax % (brachial artery; 400 μg sublingual, Table 5) | Mean ± SEM of maximum response over all data sets (dilation response) (brachial artery; 400 μg sublingual, pooled data sets, Table 5) | Mean ± SEM of maximum Response over all data sets (amplitude response, response/baseline) (brachial artery; 0.4 mg sublingual, cuff inflated to 70 mm Hg, pooled data sets, Table 2) | smooth muscle dilation elicited (arterial smooth muscle; 400 μg sublingual dose, Feldman et al. (1979), Adams et al. (1998)) | typical dilation due to nitroglycerin (arterial smooth muscle; observed at Ptm=PS)
1 | COC(=O)[C@@H](N)CCCNC(=N)N[N+](=O)[O-] [L-NAME] | greatly attenuates this response; also recorded: greatly attenuated |  |  |  |  |  | 
2 | O=[N+]([O-])OCC(CO[N+](=O)[O-])O[N+](=O)[O-] [NG, Nitroglycerin] |  | 70% | 70% | 1.70 ± 0.036 | 1.70 ± 0.036 | maximal smooth muscle dilation | ≈ 20%
